One compound from US20230248653A1, “ELECTROSPRAYED AND ELECTROSPUN CANNABINOID COMPOSITIONS AND PROCESS TO PRODUCE” (priority 2019, published 2023) can be followed below.

The nature of the series: Solubility of CBD in water, HFIP and acetic acid-water solutions. Type of series: physicochemical. The source says: Fast dissolving particles were produced using edible gelatin nanoscale particles created from acetic acid-water based solutions. A solution was created, and the electrospray process was repeated to see if reproducible results were obtainable.
In order to create CBD particles in a gelatin-based solution, the solubility of CBD in different acetic acid-water based solutions was explored.

With `C=C(C)[C@@H]1CCC(C)=C[C@H]1c1c(O)cc(CCCCC)cc1O` [CBD, Cannabidiol], the “solubility in acetic acid-water solution” value is, setting by setting: (30% v/v AA(aq.)) “Emulsions were formed”; (40% v/v AA(aq.)) “Emulsions were formed”; (50% v/v AA(aq.) and higher concentrations) “clear, homogeneous and well mixed soluble CBD solution”. For the same compound, the “solubility in HFIP” value (HFIP) is listed as “soluble”. Also, the solubility in water result (water) is reported as “not able to dissolve in water”.
